The results in this text go back to patent US9481654B2, “Compositions and methods for inhibition of the JAK pathway” (Rigel Pharmaceuticals, Inc., priority 2006, dated 2016).

Usually IC50 stands for the midpoint of a concentration-inhibition curve.

For assay [1], the system named is primary human T-cells (IL-2 induced proliferation, JAK-1/JAK-3, Stat-5). The experiment in a line: Primary Human T-Cell Proliferation Assay Stimulated with IL-2 (CellTiter-Glo). The class given is cell-based. The following applies: Table III Example 4. In a few lines:
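Read-out is intracellular ATP luminescence (CellTiter-Glo) after 72 h at 37 °C of IL-2-driven growth. Cells, pre-stimulated via TCR and CD28 then washed free of IL-2, were resuspended in Yssel's medium, given 80 U/mL IL-2 in the cell suspension plus duplicate compound; unstimulated wells lacked IL-2.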
(In general: Cellular ATP, detected with luciferase, serves as a proxy for viable cell number.)

Assay [2] relates to IL-4 stimulated CD23 upregulation in human Ramos B cells (JAK-1/JAK-3, Stat-6). As to the kind of experiment: Assay for Ramos B-Cell Line Stimulated with IL-4 (CD23 upregulation, FACS). The class given is cell-based. The following applies: Table III Example 3. In a few lines: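 Flow cytometry of CD23 staining after 20-24 h IL-4 stimulation (50 units/mL final) of human Ramos B cells in RPMI with 5% serum. Cells, 5×10^4 per point, received compound or DMSO vehicle for 1 h at 37° C prior to stimulation.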

For the molecule `Cc1ccc(Nc2ncc(F)c(Nc3ccc(CNS(=O)(=O)C4CCCCC4)cc3)n2)cc1S(N)(=O)=O` [Compound I-73, N2-(3-aminosulfonyl-4-methyl)phenyl-N4-(4-cyclohexylsulfonylaminomethyl)phenyl-5-fluoro-2,4-pyrimidinediamine], the IC50 came out at 71 nM in assay [1] and 89.9 nM in assay [2].
In the same order, the values of `CCCN(Cc1ccc(Nc2nc(Nc3cccc(S(N)(=O)=O)c3)ncc2C)cc1)S(=O)(=O)C1CC1` [Compound I-80, N2-(3-aminosulfonyl)phenyl-N4-[4-(N-cyclopropylsulfonyl-N-propylamino)methyl]phenyl-5-methyl-2,4-pyrimidinediamine] are 46.3 nM and 37.1 nM.
In the same order, the values of `Cc1cnc(Nc2cc(S(N)(=O)=O)cc(S(N)(=O)=O)c2)nc1Nc1ccc(CNS(=O)(=O)C2CC2)cc1` [Compound I-84, N4-(4-cyclopropylsulfonylaminomethyl)phenyl-N2-(3,5-diaminosulfonyl)phenyl-5-methyl-2,4-pyrimidinediamine] are 237 nM and 355 nM.
In the case of `Cc1cnc(Nc2cccc(S(N)(=O)=O)c2)nc1Nc1ccc(CNS(=O)(=O)CC(F)(F)F)cc1` [Compound I-97, N2-(3-aminosulfonyl)phenyl-5-methyl-N4-(4-trifluoroethylsulfonylaminomethyl)phenyl-2,4-pyrimidinediamine], the values for the IC50 in assay [1] and in assay [2] were 48.8 nM and 34.7 nM, respectively.
In the same order, the values of `Cc1ccc(Nc2ncc(Cl)c(Nc3ccc(CNS(=O)(=O)C4CC4)cc3)n2)cc1S(N)(=O)=O` [Compound I-113, N2-(3-aminosulfonyl-4-methyl)phenyl-5-chloro-N4-(4-cyclopropylsulfonylaminomethyl)phenyl-2,4-pyrimidinediamine] are 17 nM and 18.6 nM.
In the same order, the values of `NS(=O)(=O)c1cccc(Nc2ncc(Cl)c(Nc3ccc(CNS(=O)(=O)C4CC4)cc3)n2)c1` [Compound I-114, N2-(3-aminosulfonyl)phenyl-5-chloro-N4-(4-cyclopropylsulfonylaminomethyl)phenyl-2,4-pyrimidinediamine] are 9.2 nM and 20.6 nM.
Take `NS(=O)(=O)c1ccc(Nc2ncc(Cl)c(Nc3ccc(CNS(=O)(=O)C4CC4)cc3)n2)cc1` [Compound I-115, N2-(4-aminosulfonyl)phenyl-5-chloro-N4-(4-cyclopropylsulfonylaminomethyl)phenyl-2,4-pyrimidinediamine]: the IC50 in assay [1] came out at 19.2 nM; in assay [2] it was 23.3 nM.
As for `CCC(=O)N(Cc1cccc(Nc2nc(Nc3cccc(S(N)(=O)=O)c3)ncc2C)c1)S(=O)(=O)C1CC1` [Compound I-116, N2-(3-aminosulfonyl)phenyl-N4-[3-(N-cyclopropylsulfonyl-N-propionyl)aminomethyl]phenyl-5-methyl-2,4-pyrimidinediamine], the IC50 is 29.9 nM in assay [1] and 36.7 nM in assay [2].
`Cc1ccc(Nc2ncc(C)c(Nc3ccc(CNS(=O)(=O)C(C)C)cc3)n2)cc1S(N)(=O)=O` [Compound I-117, N2-(3-aminosulfonyl-4-methyl)phenyl-N4-(4-isopropylsulfonylaminomethyl)phenyl-5-methyl-2,4-pyrimidinediamine]: the values for the IC50 in assay [1] and in assay [2] were 17.9 nM and 38.8 nM, respectively.
In the same order, the values of `Cc1cnc(Nc2cccc(S(N)(=O)=O)c2)nc1Nc1ccc(CNS(=O)(=O)C(C)C)cc1` [Compound I-118, N2-(3-aminosulfonyl)phenyl-N4-(4-isopropylsulfonylaminomethyl)phenyl-5-methyl-2,4-pyrimidinediamine] are 15.8 nM and 39.8 nM.
On to `Cc1cnc(Nc2cccc(S(N)(=O)=O)c2)nc1Nc1ccc(CNS(=O)(=O)C2CC2)c(Cl)c1` [Compound I-119, N2-(3-aminosulfonyl)phenyl-N4-(3-chloro-4-cyclopropylsulfonylaminomethyl)phenyl-5-methyl-2,4-pyrimidinediamine], for which the IC50 was determined as 95.4 nM in assay [1] and 53.5 nM in assay [2].
In the same order, the values of `Cc1cnc(Nc2cccc(S(N)(=O)=O)c2)nc1Nc1cccc(CN(C)S(=O)(=O)C2CC2)c1` [Compound I-120, N2-(3-aminosulfonyl)phenyl-N4-[3-(N-cyclopropylsulfonyl-N-methyl)aminomethyl]phenyl-5-methyl-2,4-pyrimidinediamine] are 47.3 nM and 67.1 nM.
In the same order, the values of `Cc1cnc(Nc2cccc(S(N)(=O)=O)c2)nc1Nc1ccc(CN(C)S(=O)(=O)C2CC2)cc1` [Compound I-121, N2-(3-aminosulfonyl)phenyl-N4-[4-(N-cyclopropylsulfonyl-N-methyl)aminomethyl]phenyl-5-methyl-2,4-pyrimidinediamine] are 46.5 nM and 73.6 nM.
For `Cc1cnc(Nc2ccc(S(N)(=O)=O)cc2)nc1Nc1ccc(CNS(=O)(=O)C(C)C)cc1` [Compound I-123, N2-(4-aminosulfonyl)phenyl-N4-(4-isopropylsulfonylaminomethyl)phenyl-5-methyl-2,4-pyrimidinediamine], the concentration for half-maximal inhibition (IC50) in assay [1] was 42.9 nM; in assay [2], 83.6 nM.
Turning to `Cc1cnc(Nc2ccc(S(N)(=O)=O)cc2)nc1Nc1cccc(CN(C)S(=O)(=O)C2CC2)c1` [Compound I-124, N2-(4-aminosulfonyl)phenyl-N4-[3-(N-cyclopropylsulfonyl-N-methyl)aminomethyl]phenyl-5-methyl-2,4-pyrimidinediamine], the half-inhibitory concentration (IC50) was found to be 132 nM in assay [1] and 89.8 nM in assay [2].
In the same order, the values of `Cc1ccc(Nc2ncc(C)c(Nc3ccc(CNS(=O)(=O)C4CC4)c(Cl)c3)n2)cc1S(N)(=O)=O` [Compound I-125, N2-(3-aminosulfonyl-4-methyl)phenyl-N4-(3-chloro-4-cyclopropylsulfonylaminomethyl)phenyl-5-methyl-2,4-pyrimidinediamine] are 138 nM and 94.9 nM.
In the same order, the values of `Cc1ccc(Nc2ncc(C)c(Nc3ccc(CN(C)S(=O)(=O)C4CC4)cc3)n2)cc1S(N)(=O)=O` [Compound I-126, N2-(3-aminosulfonyl-4-methyl)phenyl-N4-[4-(N-cyclopropylsulfonyl-N-methyl)aminomethyl]phenyl-5-methyl-2,4-pyrimidinediamine] are 74.2 nM and 104 nM.
In the same order, the values of `Cc1cnc(Nc2cccc(S(=O)(=O)NCc3ccccc3)c2)nc1Nc1ccc(CNS(=O)(=O)C2CC2)cc1` [Compound I-154, N2-(3-benzylaminosulfonyl)phenyl-N4-(4-cyclopropylsulfonylaminomethyl)phenyl-5-methyl-2,4-pyrimidinediamine] are 61.9 nM and 84.6 nM.
`CNS(=O)(=O)c1cccc(Nc2ncc(C)c(Nc3ccc(CNS(=O)(=O)C4CC4)cc3)n2)c1` [Compound I-161, N4-(4-cyclopropylsulfonylaminomethyl)phenyl-5-methyl-N2-(3-methylaminosulfonyl)phenyl-2,4-pyrimidinediamine]: the figures for the IC50 in assay [1] and in assay [2] were 11.2 nM and 16.7 nM, respectively.
In the same order, the values of `CNS(=O)(=O)c1cccc(Nc2ncc(C)c(Nc3cccc(CNS(=O)(=O)C4CC4)c3)n2)c1` [Compound I-162, N4-(3-cyclopropylsulfonylaminomethyl)phenyl-5-methyl-N2-(3-methylaminosulfonyl)phenyl-2,4-pyrimidinediamine] are 46.3 nM and 57.9 nM.
Consider `C#CCNS(=O)(=O)c1ccc(Nc2ncc(C)c(Nc3ccc(CNS(=O)(=O)C4CC4)cc3)n2)cc1` [Compound I-164, N4-(4-cyclopropylsulfonylaminomethyl)phenyl-5-methyl-N2-(4-propargylaminosulfonyl)phenyl-2,4-pyrimidinediamine], for which the IC50 was 32.8 nM in assay [1] and 61.3 nM in assay [2].
In the same order, the values of `C#CCNS(=O)(=O)c1cccc(Nc2ncc(C)c(Nc3ccc(CNS(=O)(=O)C4CC4)cc3)n2)c1` [Compound I-165, N4-(4-cyclopropylsulfonylaminomethyl)phenyl-5-methyl-N2-(3-propargylaminosulfonyl)phenyl-2,4-pyrimidinediamine] are 19.9 nM and 34.8 nM.
In the case of `Cc1cnc(Nc2cccc(S(=O)(=O)NC(C)C)c2)nc1Nc1ccc(CNS(=O)(=O)C2CC2)cc1` [Compound I-173, N4-(4-cyclopropylsulfonylaminomethyl)phenyl-N2-(3-isopropylaminosulfonyl)phenyl-5-methyl-2,4-pyrimidinediamine], the IC50 in assay [1] was determined as 42.4 nM; in assay [2], 34.8 nM.
With `CCNS(=O)(=O)c1ccc(Nc2ncc(C)c(Nc3ccc(CNS(=O)(=O)C4CC4)cc3)n2)cc1` [Compound I-175, N4-(4-cyclopropylsulfonylaminomethyl)phenyl-N2-(4-ethylaminosulfonyl)phenyl-5-methyl-2,4-pyrimidinediamine], the IC50 in assay [1] worked out at 102 nM; in assay [2], 46.1 nM.
For the molecule `CCNS(=O)(=O)c1cccc(Nc2ncc(C)c(Nc3ccc(CNS(=O)(=O)C4CC4)cc3)n2)c1` [Compound I-176, N4-(4-cyclopropylsulfonylaminomethyl)phenyl-N2-(3-ethylaminosulfonyl)phenyl-5-methyl-2,4-pyrimidinediamine], the 50% inhibitory concentration (IC50) turned out to be 64.5 nM in assay [1] and 7.98 nM in assay [2].
With `CCCNS(=O)(=O)c1cccc(Nc2ncc(C)c(Nc3ccc(CNS(=O)(=O)C4CC4)cc3)n2)c1` [Compound I-178, N4-(4-cyclopropylsulfonylaminomethyl)phenyl-5-methyl-N2-(3-propylaminosulfonyl)phenyl-2,4-pyrimidinediamine], the IC50 in assay [1] turned out to be 122 nM; in assay [2], 23 nM.
